Experiments:
Type in all cases: cell-based
[1] = tested on: THP1-dual cells; assay: Luciferase assay based on THP1-dual cells; settings: final concentration of compound 10 μL (so in the source), 24 h at 37° C.
Method: (§1) THP1-dual™ (Invivogen: thpd-nfis) cells or RAW-Lucia™ (Invivogen: rawl-isg) cells were diluted using a culture medium, and 180 μL of cell suspension was sucked and inoculated in a 96-well plate, such that each well contain 1×10^5 cells. 20 μL of a compound to be tested was added into the 96-well plate (the final concentration of said compound was […], and the final volume of each well was […]) and cultured at 37° C. for 24 h. 10 μL of supernatant was sucked into a new 96-well white plate, and 50 μL of a QUANT-Luc reagent was added. After full and even mixing, a microplate reader was used immediately for determination. There were three repeated wells set in the assay. The test result was represented as agitation fold and calculated by (test well−blank well)/(negative well−blank well). The test result was in the following tablet, with 2′,3′-cGAMP as a positive control, where *** represented an agitation fold of 20 or more, ** represented an agitation fold of 10 to 20, and * represented an agitation fold of 1 to 10.

[2] = tested on: RAW-Lucia cells; assay: Luciferase assay based on RAW-Lucia cells; settings: 24 h at 37° C.
Method: as §1

[3] = tested on: THP1 cells; assay: Interferon β induction assay based on THP1 cells (ELISA); settings: Homo sapiens, THP-1, compound 20 μM, 3.5 h, read-out: Secretion of IFNβ in THP1 cells, effect relative to 2′,3′-cGAMP at 20 μM (%)
Method: Secreted cytokine IFNβ was determined by ELISA. THP1 cells were inoculated in a 96-well plate (there was no serum contained in an RPMI 1640 medium), such that the number of cells in each well ranged from 5×10^5 to 7×10^5. A DMSO stock solution of 10 mM was prepared from a compound to be tested, diluted with a culture medium to a target concentration to be added into the 96-well plate containing cells (the final concentration of said compound was 20 μM, and the final volume of each well was 200 μL), and cultured at 37° C. in 5% CO2 for 3.5 h. The cells were collected at 4° C. and centrifuged at 1,000 rpm for 20 mins, and supernate was collected for ELISA determination. There were three repeated wells set in the assay. The result was shown in the following tablet, with 2′,3′-cGAMP as a positive control, where the test result was represented as a percentage of activity relative to 2′,3′-cGAMP at a concentration of 20 μM.

SMILES	Agitation activity in luciferase assay, THP1-dual (agitation fold) [1]	Agitation activity in luciferase assay, RAW-Lucia (agitation fold) [2]	Emax at 20 µM [3]
CC(CC(=O)c1cc2cc3c(cc2[se]1)OCO3)C(=O)O (stereo not drawn) [I-8, 2-methyl-4-oxo-4-(selenophene[2′,3′:4,5]benzo[1,2-d][1,3]dioxo-6-yl)butanoic acid]	* (* represented an agitation fold of 1 to 10)	* (* represented an agitation fold of 1 to 10)	20%
CCOC(=O)C(C)CC(=O)c1cc2cc(OC)c(OC)cc2[se]1 (stereo not drawn) [I-11, 4-(5,6-dimethoxybenzo[b]selenophene-2-yl)-2-methyl-4-oxo-ethyl butyrate]	* (* represented an agitation fold of 1 to 10)	** (** represented an agitation fold of 10 to 20)	9%
CCCCC(CC(=O)c1cc2cc(OC)c(OC)cc2[se]1)C(=O)O (stereo not drawn) [I-20, 2-(2-(5,6-dimethoxybenzo[b]selenophene-2-yl)-2-oxo-ethyl) hexanoic acid]	** (** represented an agitation fold of 10 to 20)	** (** represented an agitation fold of 10 to 20)	132%
COc1cc2cc(C(=O)C3CC3C(=O)O)[se]c2cc1OC (stereo not drawn) [I-22]	** (** represented an agitation fold of 10 to 20)	** (** represented an agitation fold of 10 to 20)	115%
COc1ccc2[se]c(C(=O)CC(C)C(=O)O)cc2c1 (stereo not drawn) [I-5]	* (* represented an agitation fold of 1 to 10)	* (* represented an agitation fold of 1 to 10)	59%
COc1cc2cc(C(=O)C3CCC3C(=O)O)[se]c2cc1OC (stereo not drawn) [I-23]	*** (*** represented an agitation fold of 20 or more)	*** (*** represented an agitation fold of 20 or more)	273%
COCC(CC(=O)c1cc2cc(OC)c(OC)cc2[se]1)C(=O)O (stereo not drawn) [I-19, 4-(5,6-dimethoxybenzo[b]selenophene-2-yl)-2-(methoxymethyl)-4-oxo-butanoic acid]	** (** represented an agitation fold of 10 to 20)	** (** represented an agitation fold of 10 to 20)	107%
COc1cc2[se]c(C(=O)CC(C)C(=O)O)cc2cc1O (stereo not drawn) [I-7, 4-(5-hydroxyl-6-dimethoxybenzo[b]selenophene-2-yl)-2-methyl-4-oxo-butanoic acid]	** (** represented an agitation fold of 10 to 20)	* (* represented an agitation fold of 1 to 10)	75%
COc1cc2cc(C(=O)CC(C)C(=O)NO)[se]c2cc1OC (stereo not drawn) [I-12, 4-(5,6-dimethoxybenzo[b]selenophene-2-yl)-N-hydroxyl-2-methyl-4-oxo-butyramide]	* (* represented an agitation fold of 1 to 10)	* (* represented an agitation fold of 1 to 10)	11%
CCOc1cc2cc(C(=O)CC(C)C(=O)O)[se]c2cc1OC (stereo not drawn) [I-9, 4-(5-ethoxy-6-dimethoxybenzo[b]selenophene-2-yl)-2-methyl-4-oxo-butanoic acid]	** (** represented an agitation fold of 10 to 20)	** (** represented an agitation fold of 10 to 20)	96%
CC[C@@H](CC(=O)c1cc2cc(OC)c(OC)cc2[se]1)C(=O)O [I-16, S-4-(5,6-dimethoxybenzo[b]selenophene-2-yl)-2-ethyl-4-oxo-butanoic acid]	*** (*** represented an agitation fold of 20 or more)	*** (*** represented an agitation fold of 20 or more)	281%

Reference: US12606538B2, “Benzo[b]selenophene sting regulator, preparation method and use thereof” (CHINA PHARMACEUTICAL UNIVERSITY, priority 2021, dated 2026)
